{"source": "ChEMBL document CHEMBL1201862", "about": "“PubChem BioAssay data set” (2004)", "key": {"[1]": {"target": "T1, DNA repair and recombination protein RAD54-like (Homo sapiens, UniProt Q92698)", "T1 sequence (Q92698 whole entry)": "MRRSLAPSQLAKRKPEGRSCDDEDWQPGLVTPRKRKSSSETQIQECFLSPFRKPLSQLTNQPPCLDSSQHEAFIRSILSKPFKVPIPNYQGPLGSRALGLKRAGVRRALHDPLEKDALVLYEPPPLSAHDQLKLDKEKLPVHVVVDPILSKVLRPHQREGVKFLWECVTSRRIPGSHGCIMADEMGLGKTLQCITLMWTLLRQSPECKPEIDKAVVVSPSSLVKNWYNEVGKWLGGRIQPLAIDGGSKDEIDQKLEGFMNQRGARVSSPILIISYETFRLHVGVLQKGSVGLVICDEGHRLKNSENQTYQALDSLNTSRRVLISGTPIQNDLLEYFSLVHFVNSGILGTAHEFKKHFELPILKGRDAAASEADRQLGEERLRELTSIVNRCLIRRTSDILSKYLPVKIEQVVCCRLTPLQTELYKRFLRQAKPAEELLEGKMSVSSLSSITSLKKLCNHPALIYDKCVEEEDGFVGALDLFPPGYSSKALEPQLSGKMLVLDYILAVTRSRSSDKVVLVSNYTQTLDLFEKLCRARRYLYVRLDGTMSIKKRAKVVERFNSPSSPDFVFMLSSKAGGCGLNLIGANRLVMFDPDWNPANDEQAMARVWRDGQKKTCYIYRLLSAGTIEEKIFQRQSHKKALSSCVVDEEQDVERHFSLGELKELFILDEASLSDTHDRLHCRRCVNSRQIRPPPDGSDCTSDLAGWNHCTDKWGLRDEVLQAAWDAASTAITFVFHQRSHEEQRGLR", "assay": "inhibitors of human RAD54 branch migration, confirmation, biochemical, fluorescence, cherry-picked samples, dose series (AID 651657)", "type": "functional"}, "[2]": {"target": "T2, DNA repair protein RAD52 homolog (Homo sapiens, UniProt P43351)", "T2 sequence (P43351 whole entry)": "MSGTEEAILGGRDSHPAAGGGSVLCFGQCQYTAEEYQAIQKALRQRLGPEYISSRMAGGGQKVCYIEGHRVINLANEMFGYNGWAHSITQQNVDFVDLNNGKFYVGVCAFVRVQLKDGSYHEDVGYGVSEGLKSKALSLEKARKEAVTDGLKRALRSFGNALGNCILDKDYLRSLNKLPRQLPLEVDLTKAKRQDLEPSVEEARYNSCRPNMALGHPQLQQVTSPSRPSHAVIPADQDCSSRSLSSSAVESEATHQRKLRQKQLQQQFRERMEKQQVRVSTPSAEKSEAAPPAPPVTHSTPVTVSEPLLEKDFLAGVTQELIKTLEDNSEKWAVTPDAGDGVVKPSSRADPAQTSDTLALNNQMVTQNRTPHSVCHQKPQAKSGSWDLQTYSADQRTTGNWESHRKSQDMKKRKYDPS", "type": "functional, biochemical"}, "[3]": {"target": "T3, Polyadenylate-binding protein 1 (Homo sapiens, UniProt P11940)", "T3 sequence (P11940 whole entry)": "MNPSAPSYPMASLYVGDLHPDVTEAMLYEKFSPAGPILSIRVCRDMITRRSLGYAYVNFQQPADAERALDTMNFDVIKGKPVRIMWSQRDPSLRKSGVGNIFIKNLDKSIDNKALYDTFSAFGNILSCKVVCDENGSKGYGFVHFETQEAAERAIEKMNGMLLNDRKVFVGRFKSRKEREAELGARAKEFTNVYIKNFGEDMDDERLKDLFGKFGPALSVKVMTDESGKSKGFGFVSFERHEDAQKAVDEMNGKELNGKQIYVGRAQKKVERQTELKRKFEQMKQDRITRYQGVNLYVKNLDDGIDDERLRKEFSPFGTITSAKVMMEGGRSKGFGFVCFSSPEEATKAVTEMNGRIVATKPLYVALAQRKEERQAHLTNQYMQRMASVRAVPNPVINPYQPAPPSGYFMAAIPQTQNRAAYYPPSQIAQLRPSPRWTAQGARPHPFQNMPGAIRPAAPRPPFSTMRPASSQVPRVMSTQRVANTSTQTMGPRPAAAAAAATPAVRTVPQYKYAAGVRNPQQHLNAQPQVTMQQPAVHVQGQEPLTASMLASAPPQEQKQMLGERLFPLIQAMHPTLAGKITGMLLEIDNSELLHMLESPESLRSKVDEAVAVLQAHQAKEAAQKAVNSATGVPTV", "assay": "PABP1 MLLE–PAM2 interaction inhibitors, dose response, miRNA deadenylation inhibitor project, biochemical, fluorescence polarization, Cy5-PAM2 peptide, secondary (AID 602260)", "type": "functional", "conditions": "read-out: IC50_Mean"}, "[4]": {"target": "T3, Polyadenylate-binding protein 1", "assay": "PABP1 MLLE–PAM2 binding inhibitor potency, dose response, biochemical, fluorescence polarization, FITC-PAM2 peptide (AID 602259)", "type": "functional", "conditions": "read-out: IC50_Mean"}, "[5]": {"assay": "growth suppression of PTEN-null colon cells, dose response, cell-based, HCT116 PTEN knockout (AID 1047);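 also: cells exposed to compound for 60 hours before readout; potency for loss of cell viability measured by luminescence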", "type": "functional"}, "[6]": {"assay": "growth suppression of beta-catenin-knockout colon cells, dose response, cell-based, HCT116, human colon tumor (AID 1045);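 also: cells exposed to compound for 60 hours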", "type": "functional"}, "[7]": {"target": "T4, Heat shock factor protein 1 (Mus musculus, UniProt P38532)", "T4 sequence (P38532 whole entry)": "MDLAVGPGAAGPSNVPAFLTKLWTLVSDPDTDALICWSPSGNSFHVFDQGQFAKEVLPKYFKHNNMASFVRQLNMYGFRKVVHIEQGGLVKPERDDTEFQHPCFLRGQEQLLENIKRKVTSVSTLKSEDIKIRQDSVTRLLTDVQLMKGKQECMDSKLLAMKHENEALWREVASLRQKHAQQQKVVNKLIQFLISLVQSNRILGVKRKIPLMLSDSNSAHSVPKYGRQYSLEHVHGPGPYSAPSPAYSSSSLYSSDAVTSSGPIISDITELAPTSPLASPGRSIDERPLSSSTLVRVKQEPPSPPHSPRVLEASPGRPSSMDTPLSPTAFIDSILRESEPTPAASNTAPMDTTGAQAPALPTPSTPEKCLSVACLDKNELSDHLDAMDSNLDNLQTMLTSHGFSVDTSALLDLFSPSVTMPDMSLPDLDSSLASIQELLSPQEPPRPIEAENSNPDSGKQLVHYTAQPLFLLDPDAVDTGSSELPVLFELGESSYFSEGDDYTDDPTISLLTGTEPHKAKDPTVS", "assay": "HSF1 potentiators in luciferase reporter cells, confirmation, cell-based, NIH3T3, luminescence, dose retest (AID 435004);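 also: stress induced by proteasome inhibitor MG132 added 30 min after compound; actives raise luminescence as potentiators of the MG132 stress response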", "type": "functional"}, "[8]": {"target": "T5, Short transient receptor potential channel 4 (Mus musculus, UniProt Q9QUQ5)", "T5 sequence (Q9QUQ5 whole entry)": "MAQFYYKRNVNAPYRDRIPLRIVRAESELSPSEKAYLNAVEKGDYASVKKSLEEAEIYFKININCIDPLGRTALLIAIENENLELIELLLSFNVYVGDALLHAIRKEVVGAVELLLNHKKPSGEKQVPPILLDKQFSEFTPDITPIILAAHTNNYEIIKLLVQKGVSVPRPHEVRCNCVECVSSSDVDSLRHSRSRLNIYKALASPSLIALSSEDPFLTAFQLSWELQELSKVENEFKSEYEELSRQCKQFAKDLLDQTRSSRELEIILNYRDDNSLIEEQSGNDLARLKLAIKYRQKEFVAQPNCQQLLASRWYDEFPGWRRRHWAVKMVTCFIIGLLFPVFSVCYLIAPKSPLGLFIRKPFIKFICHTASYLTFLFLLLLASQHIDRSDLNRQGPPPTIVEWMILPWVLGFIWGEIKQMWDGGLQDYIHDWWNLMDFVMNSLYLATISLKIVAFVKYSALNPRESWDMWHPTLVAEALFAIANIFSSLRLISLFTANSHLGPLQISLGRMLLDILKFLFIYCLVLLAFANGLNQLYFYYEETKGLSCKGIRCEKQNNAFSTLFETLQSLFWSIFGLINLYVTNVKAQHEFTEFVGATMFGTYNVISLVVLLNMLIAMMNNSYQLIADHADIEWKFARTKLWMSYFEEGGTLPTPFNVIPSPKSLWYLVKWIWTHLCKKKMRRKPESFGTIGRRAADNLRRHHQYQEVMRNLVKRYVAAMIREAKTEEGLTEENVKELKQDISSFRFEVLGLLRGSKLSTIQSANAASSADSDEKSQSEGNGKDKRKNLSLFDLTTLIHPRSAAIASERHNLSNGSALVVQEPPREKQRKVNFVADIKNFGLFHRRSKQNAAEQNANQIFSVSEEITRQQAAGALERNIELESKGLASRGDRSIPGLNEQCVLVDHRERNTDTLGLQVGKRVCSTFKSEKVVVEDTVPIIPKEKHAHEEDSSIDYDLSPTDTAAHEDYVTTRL", "assay": "mouse TRPC4 channel inhibitors, dose response, cell-based, HEK293 TRPC4/mu-opioid, Fluo-4 calcium (AID 434942)", "type": "functional"}, "[9]": {"system": "BJ", "assay": "cytotoxicity toward BJ-TERT fibroblasts, dose response, cell-based, RAS-independent, luminescence (AID 1933)", "type": "functional", "conditions": "Homo sapiens"}, "[10]": {"system": "BJ", "assay": "cells", "type": "functional, cell-based", "conditions": "Homo sapiens"}, "[11]": {"system": "BJ", "assay": "cytotoxicity toward BJ-TERT-LT-ST fibroblasts, dose response, cell-based, RAS-independent, luminescence (AID 1935);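 also: BJ fibroblasts immortalized with TERT plus LT and ST oncogenes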", "type": "functional", "conditions": "Homo sapiens"}, "[12]": {"assay": "cytotoxicity toward DRD oncogenic fibroblasts, dose response, cell-based, non-viral oncogenic, luminescence (AID 1934)", "type": "functional", "conditions": "Homo sapiens"}, "[13]": {"target": "T6, Replicative DNA helicase DnaB (Mycobacterium tuberculosis, UniProt P9WMR3)", "T6 sequence (P9WMR3 whole entry)": "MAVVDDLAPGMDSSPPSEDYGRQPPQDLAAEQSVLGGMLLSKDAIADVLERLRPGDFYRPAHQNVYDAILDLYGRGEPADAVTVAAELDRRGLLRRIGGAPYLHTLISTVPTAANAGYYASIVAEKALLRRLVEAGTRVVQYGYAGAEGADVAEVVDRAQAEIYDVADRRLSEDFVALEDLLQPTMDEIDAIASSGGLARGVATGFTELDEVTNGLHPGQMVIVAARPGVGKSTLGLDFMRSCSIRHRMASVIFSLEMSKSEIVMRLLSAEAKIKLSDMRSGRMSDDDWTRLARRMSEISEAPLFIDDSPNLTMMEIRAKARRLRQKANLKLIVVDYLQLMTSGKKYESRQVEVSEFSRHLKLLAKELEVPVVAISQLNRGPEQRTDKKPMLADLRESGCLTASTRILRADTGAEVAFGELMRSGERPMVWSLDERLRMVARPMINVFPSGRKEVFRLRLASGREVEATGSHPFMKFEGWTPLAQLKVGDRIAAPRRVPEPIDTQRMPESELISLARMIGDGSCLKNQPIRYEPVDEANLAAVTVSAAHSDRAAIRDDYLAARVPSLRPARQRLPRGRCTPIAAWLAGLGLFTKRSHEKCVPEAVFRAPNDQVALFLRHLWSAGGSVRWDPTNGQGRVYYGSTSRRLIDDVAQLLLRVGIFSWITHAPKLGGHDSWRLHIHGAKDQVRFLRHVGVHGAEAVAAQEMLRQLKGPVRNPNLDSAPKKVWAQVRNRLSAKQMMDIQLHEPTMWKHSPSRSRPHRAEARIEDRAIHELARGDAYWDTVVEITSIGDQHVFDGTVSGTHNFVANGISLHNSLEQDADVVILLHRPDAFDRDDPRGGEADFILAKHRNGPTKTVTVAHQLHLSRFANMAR", "assay": "DnaB intein splicing inhibitors, dose response, biochemical, cell-free fluorescence (AID 449749)", "type": "functional"}, "[14]": {"target": "T7, Protein RecA (Mycobacterium tuberculosis, UniProt P9WHJ3)", "T7 sequence (P9WHJ3 whole entry)": "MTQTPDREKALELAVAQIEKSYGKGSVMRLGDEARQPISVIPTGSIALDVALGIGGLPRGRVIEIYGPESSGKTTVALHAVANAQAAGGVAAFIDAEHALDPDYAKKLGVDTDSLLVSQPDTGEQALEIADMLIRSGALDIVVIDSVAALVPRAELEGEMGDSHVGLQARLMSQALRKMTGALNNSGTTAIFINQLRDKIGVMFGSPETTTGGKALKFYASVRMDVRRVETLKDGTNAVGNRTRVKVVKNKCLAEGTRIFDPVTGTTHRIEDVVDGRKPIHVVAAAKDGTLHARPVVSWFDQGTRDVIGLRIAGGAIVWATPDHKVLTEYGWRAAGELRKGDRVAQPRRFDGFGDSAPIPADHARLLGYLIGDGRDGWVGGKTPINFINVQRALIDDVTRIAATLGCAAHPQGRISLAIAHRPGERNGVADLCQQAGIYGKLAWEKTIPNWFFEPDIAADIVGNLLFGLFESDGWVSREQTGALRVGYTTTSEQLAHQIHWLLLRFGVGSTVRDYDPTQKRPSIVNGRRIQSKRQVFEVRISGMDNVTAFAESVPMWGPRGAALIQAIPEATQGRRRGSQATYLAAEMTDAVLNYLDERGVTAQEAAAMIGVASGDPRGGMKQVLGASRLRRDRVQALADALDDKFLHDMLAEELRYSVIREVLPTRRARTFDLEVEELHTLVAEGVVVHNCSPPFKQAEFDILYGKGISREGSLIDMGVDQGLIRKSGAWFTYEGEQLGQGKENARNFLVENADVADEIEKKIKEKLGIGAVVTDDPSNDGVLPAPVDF", "assay": "Fluorescence Cell-Free Homogeneous Dose Retest to Identify Inhibitors of RecA-Intein Splicing Activity. [Related pubchem assays (depositor defined):AID2097, AID2223, AID489010, AID492950]", "type": "functional"}}, "note": "Calls of active or inactive are those of the source."}
{"smiles": "CN(C)CCCNc1nc2cc(-c3ccc4c(ccn4C)c3)sc2c(=O)n1C", "values": [{"measurement": "AC50", "setting": "[1]", "value": "28.7 µM (active)"}, {"measurement": "AC50", "setting": "[2]", "value": "4.02 µM (active)"}]}
{"smiles": "CCOc1ccc(Cn2c(SCCCCC#N)nc3c2c(=O)n(C)c(=O)n3C)cc1OCC", "values": [{"measurement": "IC50", "setting": "[3]", "value": "> 66 µM (inactive)"}, {"measurement": "IC50", "setting": "[4]", "value": "> 66 µM (inactive)"}]}
{"smiles": "N#Cc1ccc(-c2ccc(F)cc2)nc1Sc1ccc(F)cc1", "values": [{"measurement": "EC50", "setting": "[5]", "value": "20.6 µM (active)"}, {"measurement": "EC50", "setting": "[6]", "value": "28.7 µM (active)"}]}
{"smiles": "CCOC(=O)c1cnc2ccc(OC)cc2c1Nc1ccc(N2CCN(C)CC2)cc1", "values": [{"measurement": "EC50", "setting": "[7]", "value": "> 260 µM (inactive)"}, {"measurement": "AC50", "setting": "[1]", "value": "34 µM (active)"}]}
{"smiles": "CCCCN(C)CCNC(=O)c1cc2cc3ccc(OC)cc3nc2o1", "values": [{"measurement": "AC50", "setting": "[1]", "value": "50.9 µM (active)"}]}
{"smiles": "Brc1ccc(CN2C3=NCCCN3c3ccccc32)cc1", "values": [{"measurement": "EC50", "setting": "[8]", "value": "0.531 µM (active)"}]}
{"smiles": "CCOC(=O)c1cc(-c2ccc(OC)cc2)nc2c1c(C)nn2CCC(N)=S", "values": [{"measurement": "IC50", "setting": "[3]", "value": "> 66 µM (inactive)"}, {"measurement": "IC50", "setting": "[4]", "value": "> 66 µM (inactive)"}]}
{"smiles": "O=C(NC1CCCC1)C(c1ccc(Cl)cc1)N(Cc1ccc(F)cc1)C(=O)CCl", "note": "(stereo not drawn)", "values": [{"measurement": "EC50", "setting": "[9]", "value": "7.08 µM (inconclusive)"}, {"measurement": "EC50", "setting": "[10]", "value": "16.4 µM (active)"}, {"measurement": "EC50", "setting": "[11]", "value": "> 150 µM (inconclusive)"}, {"measurement": "EC50", "setting": "[12]", "value": "10.5 µM (inconclusive)"}, {"measurement": "AC50", "setting": "[13]", "value": "1.16 µM (active)"}, {"measurement": "EC50", "setting": "[14]", "value": "1.07 µM (active)"}]}
